Patent US10945972B2, “Particulate materials” (Nektar Therapeutics, priority 2002, dated 2021)
Structures can show the parent of a compound that is named as a salt.

Legend:
Assay type in all cases: physicochemical
[1] = Inverse gas chromatography surface energy (Example 1); details: 303K; for ΔGA (kJ/mol) Chloroform: probe chloroform; for ΔGA (kJ/mol) Toluene: probe toluene; for ΔGA (kJ/mol) Acetone: probe acetone; for ΔGA (kJ/mol) Dioxane: probe dioxane; for ΔGA (kJ/mol) Ethyl acetate: probe ethyl acetate
Excerpt: For TBS and FHBr powders, IGC was done using a Hewlett Packard Series 6890 instrument which was specifically modified for IGC measurements by Surface Measurement Systems Ltd (Manchester, UK). The IGC method is described in detail by Tong et al. 2001. (Tong H. H. Y., B. Y. Shekunov, P. York, A. H. L. Chow, 2001. Pharm. Res. 18, 852.) Triplicate measurements in separate packed columns were made. […] The γS^D and ΔGA values were obtained at 303K.

[2] = Particle size by Helos/Rodos laser diffraction (Example 1); details: geometric projection-equivalent volume mean diameter
Protocol: (§1) PSD measurements were performed using firstly, AEROSIZER® time-of-flight instrument equipped with AERO-[…]® (TSI Inc., Minneapolis. USA) and secondly, laser diffraction sensor Helos with dry-powder air-dispersion system Rodos (Sympatec GmbH. Germany). The volume mean particle diameter, VMD, was obtained for both instruments using software options. In the general case of non-spherical particles, these instruments cannot provide the exact value of VMD, however, the time-of-flight technique gives an aerodynamic-equivalent particle diameter, whereas the laser diffraction method provides the geometric projection-equivalent diameter. These diameters afford the complementary information on PSD and therefore can be used for comparative size analysis.

[3] = Particle size by AeroSizer time-of-flight (Example 1); details: aerodynamic-equivalent volume mean diameter
Protocol: as §1

[4] = AEROSIZER time-of-flight of TBS (Example 8)
Protocol: The TBS samples were also analysed using an AEROSIZER™ (Amherst Process Instruments, Amherst, Mass., USA), provided with pulse jet disperser, the AERODISPERSER™, to introduce the powders to the instrument. The measurement range of the AEROSIZER™ is nominally from 0.2 to 200 μm of aerodynamic diameter with the standard 750 μm diameter tapered nozzle. The micronized and SEDS™ TBS samples were analyzed for 300 seconds in triplicate using normal deagglomeration conditions, feed rate (5000 particles per second) and medium shear force (0.5 psi).

[5] = Laser diffraction HELOS/RODOS of TBS (Example 8); details: for Sympatec D4, 3 (μm): 2 bar
Protocol: A small amount of TBS powder was analysed using a laser diffraction RODOS/VIBRI dispersing system (HELOS/RODOS, Sympatec GmbH, Clausthal-Zellerfeld, Germany). The instrument consisted of a laser sensor HELOS and a RODOS dry-powder air-dispersion system (Sympatec GmbH, Clausthal-Zellerfeld, Germany). Different measurement ranges of the laser sensor were provided by interchangeable objectives R1 (0.1-35 μm) and R2 (0.25-87.5 μm). The rate of powder dispersion was controlled by adjusting the pressure of the compressed air flow. A pressure of 2 bar was sufficient to achieve deagglomeration of primary particles without attrition.

[6] = Differential scanning calorimetry (Example 8); details: DSC, 10° C. min^−1
Protocol: Prior to sample analysis, a baseline was obtained which was used as a background. […] Temperature and enthalpy were calibrated with the standard materials indium (melting point=156.6° C.) and zinc (melting point=419.5° C.). Samples (1-10) were accurately weighed into pierced, crimped aluminium pans and heated at 10° C. min^−1 over a heating range of 25-290° C. under a nitrogen purge. A chiller unit was used in conjunction with the calorimeter to attain the lower temperatures.

[7] = Isothermal microcalorimetry, TAM with RH ramp (Example 8); details: 25° C., RH ramp 0 to 90% at 3% RH/hr
Protocol: A Thermal Activity Monitor (TAM, model 2277; Thermometric A B, Jrflla, Sweden) was used to measure the calorimetric heat flow (μW) vs. % RH profile of each sample. A RH-perfusion cell (Model 2255-120) accessory for the TAM was used to control RH within the sample vessel. The carrier gas, dry N2, was flowed at a constant rate (1.48 cm^3/min). All experiments were performed at 25° C. About 100 to 105 mg accurately weighed of each powder were placed in a stainless steel ampoule, attached to the RH perfusion cell, and then dried under 0% RH until a stable heat flow signal was reached (e.g., a signal within the range of −1 to +1 μW). The RH was then increased in a linear ramp from 0 to 90% over the following 30 hours (i.e., 3% RH/hr). The heat flow arising from interactions of water vapor with the solid sample was measured as a function of time. Since RH changed with time in a linear fashion, the heat flow was also known as a function of RH.
The TAM measures the total heat flow in power, P, produced from either a physical or chemical reaction. In this study, the calorimetric power is proportional to the rate of moisture sorption or desorption, crystallization, and/or other processes. Exothermic events are measured as a deflection in the positive y-axis direction. Although crystallization is an exothermic process, it can be observed as a net endothermic process. During crystallization, there is an exotherm due to crystallization and a simultaneous endotherm due to desorption of previously sorbed moisture. The TAM profile gives the resultant of these processes.

[8] = Inverse gas chromatography of TBS (Example 8)
Protocol: An empty GC column was uniformly packed with the powder of interest (TBS). Pre-silanized commercially available straight glass columns of 30 cm length with a 3 mm internal diameter were used in this investigation. The silanation procedure was necessary to minimize active sites on the inner glass surfaces, which strongly interact with polar probes. Each column was packed at the detector end with a small amount of silanised glass wool, was clipped to a stand and powder was added through a glass funnel with the aid of a mechanical column packer (tapping) to improve powder flow and remove any air gaps. […] A. Hewlett Packard 6890 Series Gas Chromatograph (GC) (Hewlett Packard, Penna, USA) oven equipped with an autosampler was used to control the solvent temperature. The 6890 GC data acquisition system was used to record data from a thermal conductivity detector (TCD) and flame ionisation detector (FID) with the instrument modified for IGC by Surface Measurement Systems (SMS), Manchester, UK. The combination of detectors allowed sensitive analysis of both organic vapour elution and water (although RH was not raised above 0% for these experiments).
The whole system was fully automated by control software (SMS iGC Controller v1.3) and the data analyzed using SMS iGC Analysis macros. Prior to analysis, each column was equilibrated at 30° C. and 0% relative humidity (RH) for 5 hours by passing dry helium gas through the column. Helium gas was also used as the carrier gas. Hydrogen and compressed air flow rates were set at 40 and 450 ml min respectively for the FID. The chromatograph injection port was maintained at 80° C., TCD detector at 150° C. and the FID detector at 150° C. Column temperature was set at 30° C. throughout analysis. Data were obtained by flowing helium gas at 10 ml min^−1 through the sinalized glass column packed with a known weight of powdered material and injecting small amounts (concentration P/Po=0.05) of a range of probe vapors with different polarities. The retention times of the probes were measured using SMS iGC Controller v1.3 software, at infinite dilution or near zero surface coverage (equivalent to 10^−4-10^−7 μl of liquid) where retention is independent of the quantity of probe injected. For each sample, two columns were prepared and analysed by employing a method based on standard settings, which allows the precise control and measurement of experimental variables. This is essential in producing meaningful results. The data were used to calculate the dispersive and non-dispersive forces acting at TBS particle surfaces using the method developed by Schultz and co-workers (J. Schultz, L. Lavielle and C. Martin. The role of the interface in carbon fibre-epoxy composites, J. Adhesion, 23, 45-60 (1987)).

[9] = AEROFLOW powder avalanching (Example 8); details: listed as Micronized
Protocol: An AEROFLOW™ powder avalanching apparatus (Amherst Process Instruments, API, Amherst, USA) was employed to analyze the dynamic avalanching behaviour of micronized and SC processed TBS samples. The AEROFLOW™ apparatus consists of a transparent rotating drum with a port at the front. A white light source is positioned in front of the drum and a masked array of photocells is behind the drum. To measure avalanching, 50 ml of the drug powder was added to the drum, which is about 15% of its total volume to ensure good powder mixing during the operation. As the drum rotates, the powder bed is carried upwards until an unstable state is reached and an avalanche occurs.
The time between successive avalanches was recorded by the projection of the light beam through the drum onto the photocell array. The photocells generated a voltage dependent on the amount of light falling on the cells and the area of unmasked photocells shielded from the light source by the powder. The voltage output (transmitted light intensity) was recorded by a computer, which translates the output as powder movement using a technique disclosed in B. H. Kaye. Characterizing the flowability of a powder using the concepts of fractal geometry and chaos theory, Part. Part. Charact. 14: 53-66 (1997). Each TBS sample was tested in duplicate and mean avalanche time and irregularity (scatter) of avalanches were recorded.

[10] = AFM adhesion force of particles (Example 10); details: for adhesion force per unit area: following correction for surface area; for initial adhesion force for individual particles: in 2H 3H perfluoropentane
Protocol: The example assessed the force of adhesion of particles of salbutamol sulfate produced using a SEDS™ processes compared to the same compound in micronized form. Conventional AFM analysis was used. Particles of the samples were mounted onto AFM probes and the adhesion force per unit area to a freshly cleaved highly oriented pyrolytic graphite substrate (HOP G, Agar Scientific, Essex, UK) in a liquid (2H 3H perfluoropentane) environment was determined. The contact area involved in the interaction was assessed and related to the force measurements.

[11] = listed as micronized terbutaline sulphate

CC(Cc1ccc(O)cc1)NCC(O)c1cc(O)cc(O)c1 (stereo not drawn) [FHBr Micronised, fenoterol hydrobromide, reference compound]
γs^D (mJ/m^2) ([1]; hydrobromide): 48.53 mJ/m^2 | ΔGA (kJ/mol) Chloroform ([1]; hydrobromide): 0.69 kJ/mol | ΔGA (kJ/mol) Toluene ([1]; hydrobromide): 4.77 kJ/mol | VMD (μm) (laser diffraction) ([2]; hydrobromide): 2.34 μm | VMD (μm) (Time of flight) [3]: 1.7 μm

CC(Cc1ccc(O)cc1)NCC(O)c1cc(O)cc(O)c1 (stereo not drawn) [FHBr SEDS, fenoterol hydrobromide]
γs^D (mJ/m^2) ([1]; hydrobromide): 49.87 mJ/m^2 | ΔGA (kJ/mol) Acetone [1]: 13.15 kJ/mol | ΔGA (kJ/mol) Chloroform ([1]; hydrobromide): 0.63 kJ/mol | ΔGA (kJ/mol) Dioxane [1]: 15.32 kJ/mol | ΔGA (kJ/mol) Ethyl acetate [1]: 17.48 kJ/mol | ΔGA (kJ/mol) Toluene ([1]; hydrobromide): 3.86 kJ/mol | VMD (μm) (laser diffraction) ([2]; hydrobromide): 3.55 μm | VMD (μm) (Time of flight) [3]: 1.7 μm

CC(C)(C)NCC(O)c1cc(O)cc(O)c1 (stereo not drawn) [TBS 1, terbutaline sulfate]
Aerosizer D4, 3 (μm) [4]: 3.31 μm | Sympatec D4, 3 (μm) [5]: 3.22 μm | Enthalpy of Fusion [6]: 127.12 J/g | Enthalpy of Fusion ([6]; listed as TBS1): 127.12 J/g | RH of thermal event in TAM profile [7]: No exothermic or endothermic peaks were observed | KA [8]: 0.761 | γs^D mJm^−2 ([8]; 30° C., 0% RH): 57.37 mJm^−2 | −ΔGA^SP (kJ/mol) Acetone ([8]; probe acetone): 13.41 kJ/mol | −ΔGA^SP (kJ/mol) Ethyl acetate ([8]; probe ethyl acetate): 16.65 kJ/mol | −ΔGA^SP (kJ/mol) Toluene ([8]; probe toluene): 3.66 kJ/mol

CC(C)(C)NCC(O)c1cc(O)cc(O)c1 (stereo not drawn) [TBS 3, terbutaline sulfate]
Aerosizer D4, 3 (μm) [4]: 6.69 μm | Sympatec D4, 3 (μm) [5]: 1.99 μm | Enthalpy of Fusion [6]: 31.35 J/g

CC(C)(C)NCC(O)c1cc(O)cc(O)c1 (stereo not drawn) [TBS 4, terbutaline sulfate]
Aerosizer D4, 3 (μm) [4]: 15.53 μm | Sympatec D4, 3 (μm) [5]: 4.75 μm | Enthalpy of Fusion [6]: 40.98 J/g

CC(C)(C)NCC(O)c1cc(O)cc(O)c1 (stereo not drawn) [TBS 5, terbutaline sulfate]
Aerosizer D4, 3 (μm) [4]: 11.44 μm | Sympatec D4, 3 (μm) [5]: 4.84 μm | Enthalpy of Fusion [6]: 57.69 J/g

CC(C)(C)NCC(O)c1cc(O)cc(O)c1 (stereo not drawn) [TSB Micronised, terbutaline sulphate, reference compound]
γs^D (mJ/m^2) [1]: 58.61 mJ/m^2 | ΔGA (kJ/mol) Acetone [1]: 12.57 kJ/mol | ΔGA (kJ/mol) Chloroform [1]: 1.79 kJ/mol | ΔGA (kJ/mol) Dioxane [1]: 15.96 kJ/mol | ΔGA (kJ/mol) Ethyl acetate [1]: 16.01 kJ/mol | ΔGA (kJ/mol) Toluene [1]: 3.42 kJ/mol | Irregularity of flow ([9]; 100 sec/rev): 1.28 s | Mean time to avalanche ([9]; 100 sec/rev): 3.62 s | Irregularity of flow ([9]; 145 sec/rev): 2.39 s | Mean time to avalanche ([9]; 145 sec/rev): 5.72 s | Sympatec D4, 3 (μm) [5, 11]: 3.0 μm | particle size, 90% less than [5, 11]: less than 5 μm | VMD (μm) (laser diffraction) [2]: 3.04 μm | RH of thermal event in TAM profile ([7]; listed as micronized TBS): about 79 % RH | VMD (μm) (Time of flight) [3]: 2.7 μm

salbutamol sulfate [SEDS™ produced material]
adhesion force per unit area [10]: 13.52 nN/μm^2 | initial adhesion force for individual particles [10]: 4.21 nN

salbutamol sulfate [micronized material, reference compound]
adhesion force per unit area [10]: 100.91 nN/μm^2 | initial adhesion force for individual particles [10]: 15.77 nN
